The target in this assay is LSD1 (Homo sapiens (Human), UniProt O60341). The experiment in a line: biochemical.

Results on two compounds are retold here after patent publication US10717737B2, “Cyclopropylamines as LSD1 inhibitors” (Incyte Corporation, priority 2014, dated 2020).

SMILES strings stand for the structures.

Description: LANCE LSD1/KDM1A demethylase assay—10 μL of 1 nM LSD-1 enzyme (ENZO BML-SE544-0050) in the assay buffer (50 mM Tris, pH 7.5, 0.01% Tween-20, 25 mM NaCl, 5 mM DTT) were preincubated for 1 hour at 25° C. with 0.8 μL compound/DMSO dotted in black 384 well polystyrene plates. […] After stopping the reactions plates were incubated for 30 minutes and read on a PHERAstar FS plate reader (BMG Labtech).

For the compound `N#Cc1ccc(CC2(CN[C@@H]3C[C@H]3c3ccccc3)CCN(CC3(C(=O)O)CC3)CC2)c(F)c1` [Example 74, 1-{[4-(4-cyano-2-fluorobenzyl)-4-({[(1R,2S)-2-phenylcyclopropyl]amino}methyl)piperidin-1-yl]methyl}cyclopropanecarboxylic Acid], the IC50 is under 100 nM. Regarding `COCC1(CN[C@@H]2C[C@H]2c2ccccc2)CCN(C(=O)N2CCC(O)CC2)CC1` [Example 112, 1-{[4-(methoxymethyl)-4-({[(1R,2S)-2-phenylcyclopropyl]amino}methyl)piperidin-1-yl]carbonyl}piperidin-4-ol], the IC50 is under 100 nM.

One may read the IC50 as the point on the concentration scale where inhibition reaches its midpoint. Low readings indicate inhibition by little substance, high ones a need for much substance.
